From US9388166B2, “6-aminoindole derivatives as TRP channel antagonists” (Hoffmann-La Roche Inc., priority 2012, dated 2016)

Target: T1, hTRPA1 (Homo sapiens, UniProt O75762)
T1 construct: host or cells: CHO-K1 Tet-On, clone 20, expression induced with tetracycline/doxycycline
Test: Dose response calcium flux (FLIPR) assay, ChanTest hTRPA1-CHO stably transfected cell line, cinnamaldehyde agonist
Type: cell-based
Conditions: CHO-K1 Tet-On hTRPA1 Clone 20 cells, 30 min compound preincubation, cinnamaldehyde final 100 uM
Procedure: Dose Response Assay: ChanTest hTRPA1-CHO Stably Transfected Cell Line
To induce expression, tetracycline was added to blasticidin/zeocin-free media at a final concentration of 1 ug/ml. Experiments were run at 24 h post induction.
Measured cell density and diluted to 2.4×10^5 cells/ml in media containing 1 ug/ml Doxycycline Plate 25 ul/well into 384 well black/clear tissue culture-treated plates.
Replacement Buffer: Hank's Balanced Salt Solution, 20 mM HEPES along with 0.005% BSA and 2× Probenecid
Dye Loading Buffer: Cal-3 NW Calcium dye was prepared by dissolving the contents of one vial with 500 ml Hank's Balanced Salt Solution containing 20 mM HEPES. • Control compounds for CHOK1/TRPA1 cells:
AP-18, stock 10 mM, prepare 3.5× compound dilution in a Compound Buffer (HBSS/20mM HEPES/0.005% BSA)—final concentration 10 uM.
Preparation of Cinnamaldehyde (agonist addition): • FW=132.16 • Specific gravity=1.046 gm/cc • 1.32 gm/1.046 gm/cc=1.26 ml of stock • Add 1.74 ml DMSO=3.3 M stock • Working solution 4.5× (final 100 uM in Compound Buffer: HBSS/20 mM HEPES/0.005% BSA)
Compounds dilutions were prepared from 5 or 10 mM stock (100% DMSO):
Compounds were tested at either 20 μM three folds dilution 11 steps out or 30 μM two folds dilution 11 steps out.
3 μl of diluted compound were transferred into Weidmann 384—well plate in duplicates side-by-side.
Compound plates were resuspended with 100 ul of HBSS/20 mM HEPES/0.005% BSA buffer (Compound Buffer): • column 1A-H: buffer/DMSO (bk) • column 2A-H: AP-18(control antagonist for CHOK1 TRPA1 cells) • column 1I-P: ATP (control for CHOK1 teton cells) • column 2 I-P: 2APB (control antagonist for CHOK1/TRPM8 cells).
Growth media was removed from the cell plates (20 ul) and 20 ul of the Replacement Buffer was added followed by addition of 25 ul of diluted dye. All three steps were performed using a Plate Washer BioTek 407. The plates were then incubated for 30′ at RT.
After incubation, both the cell and compound plates were brought to the FLIPR and 20 ul of the diluted compounds/antagonist/bk were transferred to the cell plates by the FLIPR. Plates were then incubated for 30′ at room temperature. After 30′ incubation, plates were returned to the FLIPR and 20 ul of 4.5× Cinnamaldehyde was added to the cell plates. During the compound addition as well as agonist addition, fluorescence readings were taken simultaneously from all 384 wells of the cell plate every 1.5 seconds. Five readings were taken to establish a stable baseline, then 20 μl of sample was rapidly (30 ul/sec) and simultaneously added to each well of the cell plate. The fluorescence was continuously monitored before, during and after sample/agonist addition for a total elapsed time of 100 seconds (compound addition) and 120 seconds (agonist addition). Responses (increase in peak fluorescence) in each well following agonist addition was determined. The initial fluorescence reading from each well, prior to ligand stimulation, was used a zero baseline value for the data from that well.

T1 sequence (O75762 whole entry): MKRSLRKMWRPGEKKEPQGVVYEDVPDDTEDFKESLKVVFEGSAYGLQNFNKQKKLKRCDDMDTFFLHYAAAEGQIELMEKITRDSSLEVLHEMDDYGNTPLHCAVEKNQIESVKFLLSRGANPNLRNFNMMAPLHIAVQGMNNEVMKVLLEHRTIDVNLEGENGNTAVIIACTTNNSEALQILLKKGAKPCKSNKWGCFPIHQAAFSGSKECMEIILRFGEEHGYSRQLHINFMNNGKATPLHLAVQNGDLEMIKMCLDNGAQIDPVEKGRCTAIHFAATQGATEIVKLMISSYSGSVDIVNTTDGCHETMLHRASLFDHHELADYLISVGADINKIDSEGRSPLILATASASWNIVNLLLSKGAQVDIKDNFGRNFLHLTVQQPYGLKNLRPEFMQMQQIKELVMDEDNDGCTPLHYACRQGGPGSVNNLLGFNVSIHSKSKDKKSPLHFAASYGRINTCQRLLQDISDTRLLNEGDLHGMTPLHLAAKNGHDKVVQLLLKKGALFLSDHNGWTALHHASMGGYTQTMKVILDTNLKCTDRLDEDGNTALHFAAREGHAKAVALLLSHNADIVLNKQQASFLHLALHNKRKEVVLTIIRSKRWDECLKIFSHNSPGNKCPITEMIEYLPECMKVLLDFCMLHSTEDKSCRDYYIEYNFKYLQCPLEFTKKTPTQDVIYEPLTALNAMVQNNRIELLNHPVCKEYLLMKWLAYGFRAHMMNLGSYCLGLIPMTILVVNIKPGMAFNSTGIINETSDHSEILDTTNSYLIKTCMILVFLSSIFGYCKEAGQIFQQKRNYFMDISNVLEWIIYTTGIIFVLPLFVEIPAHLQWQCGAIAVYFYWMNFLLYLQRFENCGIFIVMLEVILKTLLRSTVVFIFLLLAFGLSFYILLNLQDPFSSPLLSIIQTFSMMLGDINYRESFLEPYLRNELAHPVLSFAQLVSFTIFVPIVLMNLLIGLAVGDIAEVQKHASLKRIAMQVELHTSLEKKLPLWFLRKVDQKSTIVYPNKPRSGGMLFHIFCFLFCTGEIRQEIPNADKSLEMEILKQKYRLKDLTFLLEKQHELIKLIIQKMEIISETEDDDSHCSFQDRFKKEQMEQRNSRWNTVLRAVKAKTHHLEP

Structure (SMILES) | IC50
COc1nccc(Cl)c1-c1cc2ccc(NC(=O)c3cccc(Cl)c3)cc2[nH]1 [Example 12, 3-Chloro-N-[2-(4-chloro-2-methoxy-pyridin-3-yl)-1H-indol-6-yl]-benzamide] | 5.6 µM
COc1cccc(Cl)c1-c1cc2ccc(N)cc2[nH]1 [Example 9, 2-(2-Chloro-6-methoxy-phenyl)-1H-indol-6-ylamine] | 4.3 µM
COc1nccc(I)c1-c1cc2ccc(N(C)C(C)=O)cc2[nH]1 [Example 7, N-[2-(4-Iodo-2-methoxy-pyridin-3-yl)-1H-indol-6-yl]-N-methyl-acetamide] | 3.6 µM
COc1nccc(I)c1-c1cc2ccc(N(C)C(=O)C(F)F)cc2[nH]1 [Example 6, 2,2-Difluoro-N-[2-(4-iodo-2-methoxy-pyridin-3-yl)-1H-indol-6-yl]-N-methyl-acetamide] | 3.3 µM
COc1cc2cc(-c3c(I)ccnc3OC)[nH]c2cc1N [Example 8, 2-(4-Iodo-2-methoxy-pyridin-3-yl)-5-methoxy-1H-indol-6-ylamine] | 0.74 µM
COc1nccc(I)c1-c1cc2ccc(NC(=O)C(F)F)cc2[nH]1 [Example 3, 2,2-Difluoro-N-[2-(4-iodo-2-methoxy-pyridin-3-yl)-1H-indol-6-yl]-acetamide] | 4.2 µM
CNc1ccc2cc(-c3c(I)ccnc3OC)[nH]c2c1 [Example 5, [2-(4-Iodo-2-methoxy-pyridin-3-yl)-1H-indol-6-yl]-methyl-amine] | 5.5 µM
COc1nccc(I)c1-c1cc2ccc(NC(=O)C(F)(F)F)cc2[nH]1 [Example 2, 2,2,2-Trifluoro-N-[2-(4-iodo-2-methoxy-pyridin-3-yl)-1H-indol-6-yl]-acetamide] | 0.71 µM
COc1nccc(I)c1-c1cc2ccc(NC(=O)OC(C)(C)C)cc2[nH]1 [Example 1, [2-(4-Iodo-2-methoxy-pyridin-3-yl)-1H-indol-6-yl]-carbamic acid tert-butyl ester] | 4 µM
COc1nccc(I)c1-c1cc2ccc(NC(=O)c3cccc(Cl)c3)cc2[nH]1 [Example 11, 3-Chloro-N-[2-(4-iodo-2-methoxy-pyridin-3-yl)-1H-indol-6-yl]-benzamide] | 2.9 µM
COc1nccc(Cl)c1-c1cc2ccc(NC(=O)C(F)(F)F)cc2[nH]1 [Example 4, N-[2-(4-Chloro-2-methoxy-pyridin-3-yl)-1H-indol-6-yl]-2,2,2-trifluoro-acetamide] | 0.46 µM
COc1cccc(Cl)c1-c1cc2ccc(NC(=O)C(F)(F)F)cc2[nH]1 [Example 10, N-[2-(2-Chloro-6-methoxy-phenyl)-1H-indol-6-yl]-2,2,2-trifluoro-acetamide] | 0.75 µM
COc1nccc(Cl)c1-c1cc2ccc(NC(=O)[C@@H]3CCCCN3S(=O)(=O)c3ccc(F)cc3)cc2[nH]1 [Example 13, (S)-1-(4-Fluoro-benzenesulfonyl)-piperidine-2-carboxylic acid[2-(4-chloro-2-methoxy-pyridin-3-yl)-1H-indol-6-yl]amide] | 3.5 µM
